48 molecules from a melting point compilation (Tetko et al.) can be followed below.

SMILES strings stand for the structures.

As usually defined, the melting point is the temperature of the solid-liquid transition. `Clc1ncnc2c1oc1ccccc12` returned a melting point of 144 to 146 °C.
`CCS(=O)(=O)Nc1ccc(N)cc1OC` returned a melting point of 129 to 131 °C.
`CC(C#N)CNC(=O)OC(C)(C)C` (stereo not drawn) came in with a melting point of 77 to 79 °C.
For `CCOC(=O)c1cccnc1S(N)(=O)=O` the value was 92 to 94 °C; for `COC(=O)c1cc(O)ccc1[N+](=O)[O-]`, 101 to 103 °C; for `CC(N)c1ccc(NC(=O)Nc2ccccc2)cc1` (stereo not drawn), 165 to 167 °C.
For `CC(=O)CSc1ccccc1[N+](=O)[O-]` the value was 74 to 76 °C; for `O=S1(=O)CC(S(=O)(=O)Cl)c2ccccc21` (stereo not drawn), 144 to 146 °C.
For `CCOc1ccc(C(=O)C(C)Cl)cc1` (stereo not drawn) the value was 62 to 64 °C; for `Nc1ccc(S(=O)(=O)Nc2ccc(Cl)cc2)cc1`, 180 to 182 °C; for `Cc1cc(Cl)c(S(=O)(=O)Cl)cc1[N+](=O)[O-]`, 129 to 131 °C.
`N#Cc1ccc(N2N=C(c3ccccc3)CC2=O)cc1` returned a melting point of 211 to 213 °C.
Under `N#Cc1cc(N)ccc1OCC(F)(F)F` stands 78 to 80 °C.
Molecule `Cc1nc(Br)ccc1C(=O)O` came in with a melting point of 155 to 157 °C.
`CCOc1cccc2[nH]c(C(=O)O)cc12` had a melting point of 255 to 257 °C.
As for `N#Cc1cc([N+](=O)[O-])ccc1O`, the melting point lay in the range of 196 to 198 °C.
For `COC(=O)C(C#N)=NO` the value was 122 to 124 °C; for `COC(=O)c1sc(C)cc1O`, 51 to 53 °C.
Molecule `BrCc1cn(-c2ccccc2)nn1` came in with a melting point of 111 to 113 °C.
For `Cc1cc(NC(=O)c2ccccc2Cl)sc1C(=O)O` the value was 223 to 225 °C; for `Cc1cc(C)c2c(n1)NCC(=O)N2`, 209 to 211 °C; for `Brc1ccc(C2CNCCO2)cc1` (stereo not drawn), 53 to 55 °C.
Under `CN(C)S(=O)(=O)c1ccc(F)c(N)c1` stands 104 to 106 °C.
Under `CC1(COS(C)(=O)=O)COC1` stands 32 to 34 °C.
Molecule `O=C(O)c1ccn(-c2cccc(Br)c2)n1` gave a melting point of 142 to 144 °C.
For `O=C(O)CC1COCCN1` (stereo not drawn) the value was 253 to 255 °C; for `O=C(O)C1CCCN(S(=O)(=O)c2ccccc2)C1` (stereo not drawn), 121 to 123 °C; for `Nc1cccc(-c2nccs2)c1`, 62 to 64 °C.
Take `Nc1ccc(F)cc1Nc1ccccc1F`: the melting point was 53 to 55 °C.
Under `O=C(O)c1ccccc1NS(=O)(=O)c1ccc2[nH]c(=O)[nH]c2c1` stands 225 to 227 °C; under `COC(=O)c1cc(=O)c2ccccc2[nH]1`, 223 to 225 °C; under `NC(=O)c1c(C2CCCCC2)csc1N`, 164 to 166 °C.
For `N#CCc1coc(-c2ccccc2)n1` the value was 87 to 89 °C.
`COc1ccc(C)cc1/C=C/C(=O)O` displayed a melting point of 141 to 143 °C.
The molecule `CN(C)S(=O)(=O)c1ccc(NC(=O)CCl)cc1` had a melting point of 115 to 117 °C.
Regarding `N#Cc1ccc(Oc2ccc(C(=O)O)cc2)nc1`, the melting point is 246 to 248 °C.
In the case of `Fc1ccccc1Nc1nnc(S)s1`, the melting point lay within 170 to 172 °C.
Molecule `Sc1nc2cc(Cl)cc(Cl)c2[nH]1` returned a melting point of 376 to 378 °C.
Regarding `O=C(O)c1ccc(F)c2ccsc12`, the melting point is 230 to 232 °C.
For `O=Cc1c(Cl)nc(Cl)n1-c1ccccc1` the value was 133 to 135 °C.
Take `Cc1sc(=O)n(CCC(=O)O)c1C`: the melting point is 150 to 152 °C.
Under `Cn1c(C2CC2)nc2cnccc21` stands 100 to 102 °C; under `Oc1cccc(-c2nccc(Cl)n2)c1`, 135 to 137 °C.
Under `CCOc1ccc(OC)cc1N` stands 45 to 47 °C.
For `CCOC(=O)c1n[nH]c(C(O)c2ccccc2)n1` (stereo not drawn) the value was 49 to 51 °C; for `OCCc1c[nH]nc1C(F)(F)F`, 90 to 92 °C; for `O=C1CCCN1c1ccc(Cl)c([N+](=O)[O-])c1`, 137 to 139 °C.
Take `CC(C)(C)S(=O)(=O)Cc1ccc(N)cc1`: the melting point lay in the range of 211 to 213 °C.
